Laboratory results reported in patent publication EP1976513B1 (priority 2006, dated 2007).
Structures can show the parent of a compound that is named as a salt. Where two headings read alike, the source gives them in different places.

Tests used:
[1] = target: human serotonin reuptake transporter (Homo sapiens, UniProt P31645); test: cell-based
[2] = target: T1, human dopamine reuptake transporter (Homo sapiens, UniProt Q01959); test: cell-based
T1 construct: expressed in transfected cells; host or cells: CHO-K1 or HEK293

[3] = recombinant human serotonin transporter (SERT), read-out: Human IC50 (nM) hSERT
[4] = recombinant human dopamine transporter (DAT), read-out: Human IC50 (nM) hDAT
[5] = Human IC50 (nM) hSERT, recombinant human serotonin transporter (SERT)

T1 sequence (Q01959 whole entry): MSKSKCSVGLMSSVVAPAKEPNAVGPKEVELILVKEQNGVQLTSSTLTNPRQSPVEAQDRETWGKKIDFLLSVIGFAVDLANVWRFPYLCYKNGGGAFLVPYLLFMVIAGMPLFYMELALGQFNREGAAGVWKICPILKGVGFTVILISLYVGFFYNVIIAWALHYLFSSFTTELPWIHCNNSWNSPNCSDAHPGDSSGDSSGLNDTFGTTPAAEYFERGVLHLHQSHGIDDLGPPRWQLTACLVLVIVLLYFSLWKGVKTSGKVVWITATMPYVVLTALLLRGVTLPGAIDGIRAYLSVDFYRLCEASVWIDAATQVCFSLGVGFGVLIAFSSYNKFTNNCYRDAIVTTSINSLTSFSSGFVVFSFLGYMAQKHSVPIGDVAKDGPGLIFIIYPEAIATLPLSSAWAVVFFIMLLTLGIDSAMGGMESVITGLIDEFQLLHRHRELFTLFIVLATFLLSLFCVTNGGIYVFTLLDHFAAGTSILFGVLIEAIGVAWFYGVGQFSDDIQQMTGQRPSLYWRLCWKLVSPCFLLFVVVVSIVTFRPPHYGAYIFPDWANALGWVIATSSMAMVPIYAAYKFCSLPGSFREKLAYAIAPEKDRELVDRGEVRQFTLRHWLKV
human serotonin reuptake transporter, sequence (P31645 whole entry): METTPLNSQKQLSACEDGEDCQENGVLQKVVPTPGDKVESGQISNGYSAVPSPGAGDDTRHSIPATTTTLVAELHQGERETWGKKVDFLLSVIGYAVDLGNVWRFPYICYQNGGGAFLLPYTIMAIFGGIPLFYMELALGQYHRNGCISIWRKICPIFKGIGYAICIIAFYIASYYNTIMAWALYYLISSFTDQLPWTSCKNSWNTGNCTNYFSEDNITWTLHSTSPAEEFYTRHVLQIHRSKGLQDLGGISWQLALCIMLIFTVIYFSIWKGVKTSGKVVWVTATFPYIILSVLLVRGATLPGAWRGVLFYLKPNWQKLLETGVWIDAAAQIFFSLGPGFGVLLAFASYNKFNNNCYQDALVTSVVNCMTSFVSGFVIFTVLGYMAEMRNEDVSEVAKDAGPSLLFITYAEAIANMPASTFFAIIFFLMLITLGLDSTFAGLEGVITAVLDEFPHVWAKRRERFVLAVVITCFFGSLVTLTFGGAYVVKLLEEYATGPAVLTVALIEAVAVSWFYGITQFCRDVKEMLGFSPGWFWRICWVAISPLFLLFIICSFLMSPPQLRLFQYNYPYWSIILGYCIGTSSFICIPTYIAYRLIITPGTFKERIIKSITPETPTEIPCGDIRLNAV

SMILES | IC50 [1, 3] [nM] | IC50 [2, 4] [nM] | further results
OC1Cc2ccccc2C1NCC1(c2ccc(Cl)c(Cl)c2)CCCCC1 (racemic) [Compound 113, 1-((1-(3,4-dichlorophenyl)cyclohexyl)methylamino)-2,3-dihydro-1H-inden-2-ol] | 2570 | 285 | –
CC1CCCN(CC2(c3ccc(Cl)c(Cl)c3)CCCCC2)C1 (racemic) [Compound 114, 1-((1-(3,4-dichlorophenyl)cyclohexyl)methyl)-3-methylpiperidine] | – | 16 | IC50 ([1]; Human IC50 (nM) hSERT): > 10000 nM
CC1CCCN1CC1(c2ccc(Cl)c(Cl)c2)CCCCC1 (racemic) [Compound 115, 1-((1-(3,4-dichlorophenyl)cyclohexyl)methyl)-2-methylpyrrolidine] | – | < 1 | IC50 ([1]; Human IC50 (nM) hSERT): > 10000 nM
OC1CCCCC1NCC1(c2ccc(Cl)c(Cl)c2)CCCCC1 (racemic) [Compound 117, 2-((1-(3,4-dichlorophenyl)cyclohexyl)methylamino)cyclohexanol] | 7900 | 33 | –
NCC1(c2ccc3ccccc3c2)CC=CCC1 (racemic) [Compound 291, (1-(naphthalen-2-yl)cyclohex-3-enyl)methanamine] | 185 | 72 | –
CNCC1(c2ccc3ccccc3c2)CC=CCC1 (racemic) [Compound 292, N-methyl-1-(1-(naphthalen-2-yl)cyclohex-3-enyl)methanamine] | – | – | IC50 ([1]; read-out: Human IC50 (nM) hSERT): 360 nM; IC50 ([2]; Human IC50 (nM) hDAT): 89 nM
CNC(=O)[C@]1(c2ccc3ccccc3c2)CCCC[C@H]1O (relative stereo) [Compound 301, trans-2-hydroxy-N-methyl-1-(naphthalen-2-yl)cyclohexanecarboxamide] | > 10000 | 8780 | –
CC(N)C1(c2ccc(-c3ccoc3)cc2)CCCCC1 (single isomer, unassigned) [20 E1, 1-(1-(4-(furan-3-yl)phenyl)cyclohexyl)ethanamine] | 40 | 369 | –
CC(N)C1(c2ccc(-c3ccoc3)cc2)CCCCC1 (single isomer, unassigned) [20 E2, 1-(1-(4-(furan-3-yl)phenyl)cyclohexyl)ethanamine] | 60 | 437 | –
CC(N(C)C)C1(c2cccc3ccccc23)CCCCC1 (single isomer, unassigned) [60 E1, N,N-dimethyl-1-(1-(naphthalen-1-yl)cyclohexyl)ethanamine] | 184 | 748 | –
CC(N(C)C)C1(c2cccc3ccccc23)CCCCC1 (single isomer, unassigned) [60 E2, N,N-dimethyl-1-(1-(naphthalen-1-yl)cyclohexyl)ethanamine] | 4630 | 6740 | –
CCC(N(C)C)C1(c2ccc(Cl)c(Cl)c2)CCCCC1 (single isomer, unassigned) [61 E1, 1-(1-(3,4-dichlorophenyl)cyclohexyl)-N,N-dimethylpropan-1-amine] | – | 959 | IC50 [1, 5]: 5950 nM
CCC(N(C)C)C1(c2ccc(Cl)c(Cl)c2)CCCCC1 (single isomer, unassigned) [61 E2, 1-(1-(3,4-dichlorophenyl)cyclohexyl)-N,N-dimethylpropan-1-amine] | – | 116 | IC50 [1, 5]: 9440 nM
CC(N(C)C)C1(c2ccc(OC(F)(F)F)cc2)CCCCC1 (single isomer, unassigned) [63 E1, N,N-dimethyl-1-(1-(4-(trifluoromethoxy)phenyl)cyclohexyl)ethanamine] | 194 | 6540 | –
CC(N(C)C)C1(c2ccc(OC(F)(F)F)cc2)CCCCC1 (single isomer, unassigned) [63 E2, N,N-dimethyl-1-(1-(4-(trifluoromethoxy)phenyl)cyclohexyl)ethanamine] | 2 | 1820 | –
CNC(C)C1(c2ccc(OC(F)(F)F)cc2)CCCCC1 (single isomer, unassigned) [64 E1, N-methyl-1-(1-(4-(trifluoromethoxy)phenyl)cyclohexyl)ethanamine] | 58 | – | IC50 ([2]; Human IC50 (nM) hDAT): > 10000 nM
CNC(C)C1(c2ccc(OC(F)(F)F)cc2)CCCCC1 (single isomer, unassigned) [64 E2, N-methyl-1-(1-(4-(trifluoromethoxy)phenyl)cyclohexyl)ethanamine] | 32 | – | IC50 ([2]; Human IC50 (nM) hDAT): 3640 nM
CNCC1(c2ccc(OC)cc2)CCCCC1O (single isomer, unassigned) [139 E1, cis-2-((methylamino)methyl)-2-(4-methoxyphenyl)cyclohexanol] | > 10000 | > 10000 | –
CNCC1(c2ccc(OC)cc2)CCCCC1O (single isomer, unassigned) [139 E2, cis-2-((methylamino)methyl)-2-(4-methoxyphenyl)cyclohexanol] | > 10000 | > 10000 | –
CC1(O)CCCC(CN)(c2ccc(Cl)c(Cl)c2)C1 (single isomer, unassigned) [193 E1, 3-Aminomethyl-3-(3,4-dichloro-phenyl)-1-methyl-cyclohexanol] | 416 | 266 | –
CC1(O)CCCC(CN)(c2ccc(Cl)c(Cl)c2)C1 (single isomer, unassigned) [193 E2, 3-Aminomethyl-3-(3,4-dichloro-phenyl)-1-methyl-cyclohexanol] | 957 | 3160 | –
COC1CCCC(CN)(c2ccc(Cl)c(Cl)c2)C1 (single isomer, unassigned) [195 E2] | 45 | 5320 | –

SMILES | IC50 [1, 3] [nM] | IC50 [2, 4] [nM] | further results
CNC(C)C1(c2ccc3ccccc3c2)CCC(C)(O)CC1 (single isomer, unassigned) [231 E1, 1-methyl-4-(1-(methylamino)ethyl)-4-(naphthalen-2-yl)cyclohexanol] | 1280 | 460 | –
CNC(C)C1(c2ccc3ccccc3c2)CCC(C)(O)CC1 (single isomer, unassigned) [231 E2, 1-methyl-4-(1-(methylamino)ethyl)-4-(naphthalen-2-yl)cyclohexanol] | 63 | 83 | –
CC(N(C)C)C1(c2ccc3ccccc3c2)CCC(C)(O)CC1 (single isomer, unassigned) [234 E1, 4-(1-(dimethylamino)ethyl)-1-methyl-4-(naphthalen-2-yl)cyclohexanol] | 3380 | 346 | –
CC(N(C)C)C1(c2ccc3ccccc3c2)CCC(C)(O)CC1 (single isomer, unassigned) [234 E2, 4-(1-(dimethylamino)ethyl)-1-methyl-4-(naphthalen-2-yl)cyclohexanol] | 18 | 21 | –
COC1CCCC(CN)(c2ccc(Cl)c(Cl)c2)C1 (single isomer, unassigned) [Compound 194] | 330 | 2370 | –
CN1Cc2c(ccc3c2OCO3)C2(CCC(C)(O)CC2)C1 (single isomer, unassigned) [Compound 294, 4',8-dimethyl-8,9-dihydro-7H-spiro([1,3]dioxolo[4,5-h]isoquinoline-6,1'-cyclohexan]-4'-ol] | > 10000 | > 10000 | –
CN1Cc2c(ccc3c2OCO3)C2(CCC(C)(O)CC2)C1 (single isomer, unassigned) [Compound 295, 4',8-dimethyl-8,9-dihydro-7H-spiro [[1,3]dioxolo[4,5-h]isoquinoline-6,1'-cyclohexan]-4'-ol] | > 10000 | > 10000 | –
NCC1(c2ccc(Cl)c(Cl)c2)CCC1 [Compound 1, (1-(3,4-dichlorophenyl)cyclobutyl)methanamine] | 1290 | 103 | –
CSc1ccc(C2(CN)CCCCC2)cc1 [Compound 10, (1-(4-(methylthio)phenyl)cyclohexyl)methanamine] | – | 2930 | IC50 [1, 5]: 1910 nM
CC(N)C1(c2ccc(-c3ccoc3)cc2)CCCCC1 (centres unmarked) [Compound 20, 1-(1-(4-(furan-3-yl)phenyl)cyclohexyl)ethanamine] | 24 | 275 | –
NCC1(c2ccc(-c3cc(F)cc(F)c3)cc2)CCCCC1 [Compound 23, (1-(3',5'-difluorobiphenyl-4-yl)cyclohexyl)methanamine] | 62 | 682 | –
NCC1(c2cccc(Cl)c2)CCCCC1 [Compound 28, (1-(3-chlorophenyl)cyclohexyl)methanamine hydrochloride] | 4560 | 707 | –
NCC1(c2ccc(Cl)cc2)CCCCC1 [Compound 29, (1-(4-chlorophenyl)cyclohexyl)methanamine hydrochloride] | 5240 | 195 | –
NCC1(c2ccc(C(F)(F)F)cc2)CCCCC1 [Compound 34, (1-(4-(trifluoromethyl)phenyl)-cyclohexyl)methanamine] | – | 5320 | IC50 [1, 5]: > 10000 nM
NCC1(c2ccc3c(c2)OCO3)CCCCC1 [Compound 35, (1-(benzo[d][1,3]dioxol-5-yl)cyclohexyl)methanamine] | – | 4710 | IC50 [1, 5]: > 10000 nM
NCC1(c2cccc(C(F)(F)F)c2)CCCCC1 [Compound 36, (1-(3-(trifluoromethyl)phenyl)-cyclohexyl)methanamine] | – | > 10000 | IC50 [1, 5]: 6550 nM
NCC1(c2cccc(F)c2)CCCCC1 [Compound 37, (1-(3-fluorophenyl)cyclohexyl)methanamine] | – | > 10000 | IC50 [1, 5]: > 10000 nM
NCC1(c2ccc3cc(F)ccc3c2)CCCCC1 [Compound 39, (1-(6-fluoronaphthalen-2-yl)cyclohexyl)methanamine] | 295 | 2240 | –
NCC1(c2ccc(F)c3ccccc23)CCCCC1 [Compound 40, (1-(4-fluoronaphthalen-1-yl)cyclohexyl)methanamine] | 753 | 2320 | –
CNCC1(c2ccc(Cl)c(Cl)c2)CCC1 [Compound 42, 1-(1-(3,4-dichlorophenyl)cyclobutyl)-N-methylmethanamine] | 935 | 761 | –
CSc1ccc(C2(CN(C)C)CCCCC2)cc1 [Compound 52, N,N-dimethyl-1-(1-(4-(methylthio)phenyl)cyclohexyl)methanamine] | 44 | – | IC50 ([2]; Human IC50 (nM) hDAT): 176 nM
